How the values were obtained:
Test in all cases: relative viability (nuclei count vs DMSO), 5 days (fraction); higher = more cells survive
Tivantinib + Phenformin = compound: O=C1NC(=O)[C@@H](c2cn3c4c(cccc24)CCC3)[C@@H]1c1c[nH]c2ccccc12 [Tivantinib] + N=C(N)NC(=N)NCCc1ccccc1 [Phenformin] (partner 250 µM)
Method in brief: (§1)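 Cells from lung cancer lines were seeded into 1536-well plates and, one day later, dosed by pin tool. Treatments were either a single drug or a fixed dose of an anchor drug with five library-drug doses (not always all listed) in √10 steps. After 5 days, nuclei were stained in a one-step fixation (final 0.05% Triton X-100, 1% formaldehyde, 1 ug/ml Hoechst) and counted on 4× images, and relative viability is the treated-to-vehicle nuclei ratio, as the median of duplicate plates.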

Tivantinib + AZD7762 = compound: O=C1NC(=O)[C@@H](c2cn3c4c(cccc24)CCC3)[C@@H]1c1c[nH]c2ccccc12 [Tivantinib] + NC(=O)Nc1cc(-c2cccc(F)c2)sc1C(=O)N[C@H]1CCCNC1 [AZD7762] (partner 0.2 µM)
Method in brief: as §1

Crenolanib + Vorinostat = compound: CC1(COc2ccc3c(c2)ncn3-c2ccc3cccc(N4CCC(N)CC4)c3n2)COC1 [Crenolanib] + O=C(CCCCCCC(=O)Nc1ccccc1)NO [Vorinostat] (partner 1 µM)
Method in brief: as §1

Crenolanib + Bortezomib = compound: CC1(COc2ccc3c(c2)ncn3-c2ccc3cccc(N4CCC(N)CC4)c3n2)COC1 [Crenolanib] + CC(C)C[C@H](NC(=O)[C@H](Cc1ccccc1)NC(=O)c1cnccn1)B(O)O [Bortezomib] (partner 0.002 µM)
Method in brief: as §1

Row | Cell Line | relative viability (Tivantinib + Phenformin; first compound 0.01 µM) | relative viability (Tivantinib + Phenformin; first compound 0.03162 µM) | relative viability (Tivantinib + Phenformin; first compound 0.1 µM) | relative viability (Tivantinib + Phenformin; first compound 0.3162 µM) | relative viability (Tivantinib + AZD7762; first compound 0.01 µM) | relative viability (Tivantinib + AZD7762; first compound 0.03162 µM) | relative viability (Tivantinib + AZD7762; first compound 0.1 µM) | relative viability (Crenolanib + Vorinostat; first compound 0.01 µM) | relative viability (Crenolanib + Vorinostat; first compound 0.03162 µM) | relative viability (Crenolanib + Vorinostat; first compound 0.1 µM) | relative viability (Crenolanib + Vorinostat; first compound 0.3162 µM) | relative viability (Crenolanib + Vorinostat; first compound 1 µM) | relative viability (Crenolanib + Bortezomib; first compound 0.01 µM) | relative viability (Crenolanib + Bortezomib; first compound 0.03162 µM) | relative viability (Crenolanib + Bortezomib; first compound 0.1 µM) | relative viability (Crenolanib + Bortezomib; first compound 0.3162 µM) | relative viability (Crenolanib + Bortezomib; first compound 1 µM) | relative viability (Tivantinib + AZD7762; first compound 0.3162 µM)
1 | HCC-827 | 0.338 | 0.466 | 0.379 | 0.166 | 0.186 | 0.238 | 0.297 | 0.985 | 0.837 | 0.809 | 0.7 | 0.753 | 1.08 | 0.962 | 0.963 | 1.04 | 0.933 | –
2 | HCC-366 | 0.63 | 0.637 | 0.598 | 0.635 | 0.229 | 0.403 | 0.316 | 0.377 | 0.357 | 0.335 | 0.426 | 0.216 | 1.01 | 1.1 | 0.902 | 1.12 | 0.949 | 0.237
3 | EKVX | 0.218 | 0.256 | 0.243 | – | 0.59 | 0.704 | 0.619 | 0.928 | 0.752 | 0.722 | 0.888 | 0.654 | 1.03 | 0.994 | 0.974 | 1.2 | 1.08 | 0.28
4 | NCI-H2126 | 0.527 | 0.504 | 0.532 | 0.47 | 1 | 1.03 | 0.94 | 0.8 | 0.836 | 0.691 | 0.815 | 0.684 | 1.09 | 1.17 | 1.13 | 1.15 | 1.1 | 1.04
5 | ABC-1 | 0.23 | 0.246 | 0.201 | 0.228 | 0.8 | 0.912 | 0.708 | 0.991 | 0.679 | 1.13 | 1.17 | 0.934 | 0.289 | 0.353 | 0.331 | 0.308 | 0.253 | 0.685
6 | PC-14 | 0.516 | 0.454 | 0.611 | 0.341 | 0.296 | 0.304 | 0.4 | 0.95 | 0.678 | 0.704 | 0.875 | 0.633 | 0.908 | 0.809 | 0.785 | 0.995 | 0.948 | 0.226
7 | A-427 | 0.378 | 0.391 | 0.325 | 0.304 | 0.792 | 0.829 | 0.749 | 0.848 | – | 0.848 | 0.946 | 0.83 | 0.961 | 1.12 | 0.987 | 1.01 | 1.03 | 0.651
8 | NCI-H1915 | 0.362 | 0.354 | 0.367 | 0.378 | 0.654 | 0.771 | 0.629 | 0.529 | 0.516 | 0.487 | 0.511 | 0.459 | 1 | 0.974 | 0.929 | 1.03 | 0.772 | 0.665
9 | LOU-NH91 | 0.689 | 0.715 | 0.702 | 0.615 | 0.784 | 0.719 | 0.702 | 0.996 | 0.913 | 0.878 | 0.886 | 0.867 | 0.336 | 0.474 | 0.45 | 0.49 | 0.513 | 0.738

Source: the supplement of paper PMC10307832
